Like-named read-outs stand apart in the source and are kept apart here.
Tests used:
[1] = Dissolution capacity of diluents/solvents for Dioxacarb and Arprocarb; type: physicochemical
[2] = at 25° C
[3] = at 20° C, solute Arprocarb, footnotes

Compound	Dissolution capacity for DIOXACARB ([1]; at 20° C, solute Dioxacarb) [weight %]	Vapour pressure [2]	Dissolving capacity for Dioxacarb ([1]; at 20° C, solute Dioxacarb)	further results
CCCCCCCC/C=C\CCCCCCCC(=O)O [Oleic acid]	1.2	0.0002 Torr		
CCCCCCCCCCCCCCBr [1-Bromotetradecane]	0.1	< 0.001 Torr		Vapour pressure ([2]; listed as 1-bromotetradecane): < 0.005 Torr
CCO [Ethanol]				Dissolution capacity for ARPROCARB [1]: 0.3 weight %; Dissolution capacity for DIOXACARB [1]: 0.2 weight %; Dissolving capacity for Arprocarb [1]: 40%; Dissolving capacity for Dioxacarb [1]: 8%
CCCCC [Pentane]		513 Torr		Dissolution capacity for ARPROCARB [1]: 0.3 weight %; Dissolution capacity for DIOXACARB [1]: 0.2 weight %; Dissolving capacity for Arprocarb [1]: 0.3%; Dissolving capacity for Dioxacarb [1]: approximately 0.2%
CCC(=O)OC [Methylpropionate]	12	83 Torr		
CCCCOCCOCCOCCCC [5,8,11-Trioxapentadecane, 5,8,11-Trioxapenta-decane]	3.2	0.002 Torr		
OCC(O)CO [Glycerol]	0.6	< 0.0001 Torr		
ClC(Cl)Cl [Trichloromethane]		194 Torr		Dissolution capacity for DIOXACARB [1]: 34 weight %; Dissolving capacity for Dioxacarb [1]: 34%; Vapour pressure ([2]; listed as Chloroform): 194 Torr
CCCCC(CC)COC(=O)CCCCC(=O)OCC(CC)CCCC (stereo not drawn) [Di(2-ethylhexyl)adipate)]	2.0	0.007 Torr		Dissolution capacity for ARPROCARB ([1]; at 20° C, solute Arprocarb): 2.8 weight %; Dissolving capacity for Arprocarb [1, 3]: 2.8%; Vapour pressure ([2]; listed as Di(2-ethyl-hexyl) adipate): ~0.007 Torr; Vapour pressure ([2]; listed as di(ethyl-2-hexyl) adipate): < 0.005 Torr
CC(Cl)(Cl)Cl [1.1.1-Trichloro-ethane]	2.3	121 Torr	2.3%	
c1ccccc1 [Benzene]				Dissolution capacity for DIOXACARB [1]: 3 weight %; Dissolving capacity for Dioxacarb [1]: 3%
COCCO [2-Methoxyethanol]		8.6 Torr		Dissolution capacity for DIOXACARB [1]: 15 weight %; Dissolving capacity for Dioxacarb [1]: about 15%
CCCCCCCCCCCCCCCCCl [1-Chlorohexadecane]	0.7	< 0.0001 Torr	0.7%	Dissolving capacity for Arprocarb of the 1:1 mixture with 5-(3,6,9-trioxa-un-decyl-2-oxy)-1,3-benzodioxole ([1]; at 20° C, 1:1 mixture with T.U.O.B.): 2%; Dissolution capacity for ARPROCARB ([1]; at 20° C, solute Arprocarb): 0.4 weight %; Dissolving capacity for Arprocarb [1, 3]: 0.4%; Vapour pressure ([2]; listed as 1-chlorohexadecane): < 0.005 Torr; Vapour pressure ([2]; listed as Chlorohexadecane): below 0.0001 Torr
C1COCCO1 [Dioxan]	23	35 Torr	23%	
CCC(C)=O [Methylethylketone]	5	20 Torr		
CCOC(C)=O [Ethylacetate]	10.5	97 Torr	10.5%	
ClC=C(Cl)Cl [Trichloroethylene]	2	74 Torr	approximately 2%	
CCCC(=O)OC [Methylbutyrate]	8	34 Torr		
COC(C)=O [Methylacetate]	19.6	216 Torr	19.6%	Dissolution capacity for ARPROCARB ([1]; at 20° C, solute Arprocarb): 41 weight %; Dissolving capacity for Arprocarb [1, 3]: 41%
CC(C)=O [Acetone]		225 Torr		Dissolution capacity for DIOXACARB [1]: 28 weight %; Dissolving capacity for Dioxacarb [1]: 28%
CCCCOC(C)=O [Butylacetate]		11 Torr		Dissolution capacity for DIOXACARB [1]: 5 weight %

Compound	Dissolution capacity for DIOXACARB ([1]; at 20° C, solute Dioxacarb) [weight %]	Vapour pressure [2]	Dissolving capacity for Dioxacarb ([1]; at 20° C, solute Dioxacarb)	further results
CCCCCCCCCCCCCCCC [Hexadecane]	0	0.003 Torr		Vapour pressure ([2]; listed as hexadecane): < 0.005 Torr
CCCCCCCC(=O)O [Octanoic acid]	1.5	0.002 Torr		
CCCCCCCCCCCCO [Composition 1-Dodecanol, 1-Dodecanol]	0.8	0.001 Torr		
ClCCl [Dichloromethane]		420 Torr		Dissolution capacity for ARPROCARB [1]: 48 weight %; Dissolution capacity for DIOXACARB [1]: 45 weight %; Dissolving capacity for Arprocarb [1]: approximately 48%; Dissolving capacity for Dioxacarb [1]: 45%
CCCOC(C)=O [Propylacetate]	6	33 Torr		
CCCCCO [Amylalcohol]	2.6	2.5 Torr	2.6%	
Tetrachlorodiphenyle	1.3	< 0.001 Torr	1.3%	Vapour pressure ([2]; listed as Tetrachlorodiphenyl): below 0.001 Torr; Vapour pressure ([2]; listed as tetrachlorodiphenyl): < 0.005 Torr
CCCCCl [1-Chlorobutane]	2	102 Torr	2%	
CCCCCCC [Heptane]		38.5 Torr	about 0.2%	Dissolution capacity for ARPROCARB ([1]; at 20° C, solute Arprocarb): 0.3 weight %; Dissolving capacity for Arprocarb [1, 3]: 0.3%
CCC(C)OC(C)=O (stereo not drawn) [sec. Butylacetate]	6	26 Torr		
CCCCCCCCCCCCC1CC(=O)OC1=O (stereo not drawn) [2-Dodecylsuccinic-acid anhydride]	2.9	0.007 Torr		
CO [Methanol]	20.5	127 Torr	20.5%	
CC(=O)OC(C)C [Isopropylacetate]	6	55 Torr		
CCCC(=O)OCC [Ethylbutyrate]	7	17 Torr		
C[N+](=O)[O-] [Nitromethane]	27.5	34 Torr	27.5%	
CCOC(=O)CC [Ethylpropionate]	9	37 Torr		
COCCOC(C)=O [2-Methoxyethyl acetate]	20	5 Torr		Dissolution capacity for ARPROCARB ([1]; at 20° C, solute Arprocarb): 33 weight %
CCCCCCCC/C=C/CCCCCCCC(=O)CCCCCCC/C=C/CCCCCCCC [Oleone]	0.2	< 10^-6 Torr		
CCCCOC(=O)c1ccccc1C(=O)OCCCC [Dibutylphthalate]	2.7	< 0.0001 Torr	2.7%	Vapour pressure ([2]; listed as Dibutyl phthalate): ca. 0.0001 Torr; Vapour pressure ([2]; listed as dibutylphthalate): < 0.005 Torr
CCCCCC [Hexane]	0.2	151 Torr	approximately 0.2%	Dissolution capacity for ARPROCARB ([1]; at 20° C, solute Arprocarb): 0.3 weight %; Dissolving capacity for Arprocarb [1, 3]: 0.3%

— US4067990A, “Process for the preparation of insecticidal compositions based on carbamic esters” (Airwick Industries, Inc., priority 1971, dated 1978)
